Source: patent publication US20250214977A1, “STAT6 INHIBITORS AND USES THEREOF” (Kymera Therapeutics, Inc., priority 2024, published 2025)

Each compound was assayed on Phosphorylation of STAT6 in human A549 cells (assay: Phosphorylated STAT6 (pSTAT6) flow cytometry assay in human A549 cells). Details: read-out: STAT6 IL4 pSTAT6 assay in A549 cells: Average IC50.
Assay type: cell-based
Text: Example 3. Phosphorylated STAT6 (pSTAT6) Flow Cytometry Assay in Human A549 Cells
Phosphorylation of STAT6 in human A549 cells was quantitatively measured using flow cytometry technology.
Compound `COc1ccncc1-c1cc(C2=CCCN(C(=O)CCn3ccnn3)C2)c(F)c2[nH]c(C(=O)N3CCN(c4cccc(F)c4OC)CC3)cc12` [Example I-563] has an IC50 of under 0.1 µM.
For `CCOc1cccnc1N1CCN(C(=O)c2cc3c(-c4cnccc4OC)cc(C4=CCCN(C(=O)CCn5ccnn5)C4)c(F)c3[nH]2)CC1` [Example I-564], the IC50 was under 0.1 µM.
`COc1ccncc1-c1cc(C2=CCCN(C(=O)CCn3ccnn3)C2)c(F)c2[nH]c(C(=O)N3CCN(c4ccccc4OC)CC3)cc12` [Example I-565] was tested, and the IC50 was under 0.1 µM.
Work on `COc1ccc(F)cc1-c1cc(C2=CCCN(C(=O)CCn3ccnn3)C2)c(F)c2[nH]c(C(=O)N3CCN(c4ccccc4OC)CC3)cc12` [Example I-566] yielded an IC50 of under 0.1 µM.
With `COc1ccccc1N1CCN(C(=O)c2cc3c(-c4cccc(F)c4OC)cc(C4=CCCN(C(=O)CCn5ccnn5)C4)c(F)c3[nH]2)CC1` [Example I-567] the IC50 was under 0.1 µM.
`COc1ccncc1-c1cc(C2=CCCN(C(=O)CCn3ccnn3)C2)c(F)c2[nH]c(C(=O)N3CCN(c4ccccn4)C(C)C3)cc12` (centres unmarked) [Example I-568] was tested, and the IC50 was under 0.1 µM.
Work on `COc1cccnc1N1CCN(C(=O)c2cc3c(C4=C(C)CCCC4)cc(C4=CCCN(C(=O)CCn5ccnn5)C4)c(F)c3[nH]2)CC1` [Example I-569] yielded an IC50 of under 0.1 µM.
In the case of `COc1cc(C)ncc1-c1cc(C2=CCCN(C(=O)CCn3ccnn3)C2)c(F)c2[nH]c(C(=O)N3CCN(c4ncccc4OC)CC3)cc12` [Example I-570], the IC50 is reported as under 0.1 µM.
With `COc1cc(N)ccc1-c1cc(C2=CCCN(C(=O)CCn3ccnn3)C2)c(F)c2[nH]c(C(=O)N3CCN(c4ncccc4OC)CC3)cc12` [Example I-571] the IC50 was under 0.1 µM.
In the case of `COc1cccnc1N1CCN(C(=O)c2cc3c(-c4nc(C)[nH]c4C)cc(C4=CCCN(C(=O)CCn5ccnn5)C4)c(F)c3[nH]2)CC1` [Example I-572], the IC50 is reported as under 0.1 µM.
`COc1cccnc1N1CCN(C(=O)c2cc3c(-c4ccccc4C#N)cc(C4=CCCN(C(=O)CCn5ccnn5)C4)c(F)c3[nH]2)CC1` [Example I-573] was tested, and the IC50 was under 0.1 µM.
`COc1cccnc1N1CCN(C(=O)c2cc3c(-c4cn(C)nc4C)cc(C4=CCCN(C(=O)CCn5ccnn5)C4)c(F)c3[nH]2)CC1` [Example I-574] showed an IC50 of under 0.1 µM.
In the case of `COc1cccnc1N1CCN(C(=O)c2cc3c(-c4ccc(C#N)cn4)cc(C4=CCCN(C(=O)CCn5ccnn5)C4)c(F)c3[nH]2)CC1` [Example I-575], the IC50 is reported as under 0.1 µM.
Compound `COc1cc(C#N)ccc1-c1cc(C2=CCCN(C(=O)CCn3ccnn3)C2)c(F)c2[nH]c(C(=O)N3CCN(c4ncccc4OC)CC3)cc12` [Example I-576] has an IC50 of under 0.1 µM.
With `COc1cccnc1N1CCN(C(=O)c2cc3c(-c4ccc5ncccc5c4OC)cc(C4=CCCN(C(=O)CCn5ccnn5)C4)c(F)c3[nH]2)CC1` [Example I-577] the IC50 was under 0.1 µM.
Work on `COc1cccnc1N1CCN(C(=O)c2cc3c(-n4ccc5ccccc54)cc(C4=CCCN(C(=O)CCn5ccnn5)C4)c(F)c3[nH]2)CC1` [Example I-578] yielded an IC50 of under 0.1 µM.
With `COc1cccnc1N1CCN(C(=O)c2cc3c(C4CCCCC4)cc(C4=CCCN(C(=O)CCn5ccnn5)C4)c(F)c3[nH]2)CC1` [Example I-579] the IC50 was under 0.1 µM.
`CNc1ccc(-c2cc(C3=CCCN(C(=O)CCn4ccnn4)C3)c(F)c3[nH]c(C(=O)N4CCN(c5ncccc5OC)CC4)cc23)c(OC)c1` [Example I-580] showed an IC50 of under 0.1 µM.
`COc1cccnc1N1CCN(C(=O)c2cc3c(-c4cc(C#N)ccn4)cc(C4=CCCN(C(=O)CCn5ccnn5)C4)c(F)c3[nH]2)CC1` [Example I-581] showed an IC50 of under 0.1 µM.
Work on `CCn1nccc1-c1cc(C2=CCCN(C(=O)CCn3ccnn3)C2)c(F)c2[nH]c(C(=O)N3CCN(c4ncccc4OC)CC3)cc12` [Example I-582] yielded an IC50 of under 0.1 µM.
`COc1cccnc1N1CCN(C(=O)c2cc3c(-c4ccc(OC)c5c4OCCO5)cc(C4=CCCN(C(=O)CCn5ccnn5)C4)c(F)c3[nH]2)CC1` [Example I-583] was tested, and the IC50 was over 100 µM.
In the case of `COc1cccnc1N1CCN(C(=O)c2cc3c(C4CCN(C)C4)cc(C4=CCCN(C(=O)CCn5ccnn5)C4)c(F)c3[nH]2)CC1` (centres unmarked) [Example I-585], the IC50 is reported as under 0.1 µM.
In the case of `COc1cccnc1N1CCN(C(=O)c2cc3c(-n4nc(C)cc4C)cc(C4=CCCN(C(=O)CCn5ccnn5)C4)c(F)c3[nH]2)CC1` [Example I-586], the IC50 is reported as under 0.1 µM.
Work on `COc1ccncc1-c1cc(C2=CCCN(C(=O)CCn3ccnn3)C2)c(F)c2[nH]c(C(=O)N3CCN(C4CC4)CC3)cc12` [Example I-587] yielded an IC50 of under 0.1 µM.
In the case of `COc1cc(F)ccc1-c1cc(C2=CCCN(C(=O)CCn3ccnn3)C2)c(F)c2[nH]c(C(=O)N3CCN(C4CC4)CC3)cc12` [Example I-588], the IC50 is reported as under 0.1 µM.
`COc1cccc(N2CCN(C(=O)c3cc4c(-c5ccc(F)cc5OC)cc(C5=CCCN(C(=O)CCn6ccnn6)C5)c(F)c4[nH]3)CC2)n1` [Example I-589] showed an IC50 of under 0.1 µM.
`COc1cccc(N2CCN(C(=O)c3cc4c(-c5cc(F)c(F)cc5OC)cc(C5=CCCN(C(=O)CCn6ccnn6)C5)c(F)c4[nH]3)CC2)n1` [Example I-590] gave an IC50 of under 0.1 µM.
Compound `COc1cccc(N2CCN(C(=O)c3cc4c(-c5cc(F)cc(F)c5OC)cc(C5=CCCN(C(=O)CCn6ccnn6)C5)c(F)c4[nH]3)CC2)n1` [Example I-591] has an IC50 of under 0.1 µM.
`COc1cccnc1N1CCN(C(=O)c2cc3c(N4CCCOCC4)cc(C4=CCCN(C(=O)CCn5ccnn5)C4)c(F)c3[nH]2)CC1` [Example I-592] was tested, and the IC50 was under 0.1 µM.
Work on `COc1cnccc1-c1cc(C2=CCCN(C(=O)CCn3ccnn3)C2)c(F)c2[nH]c(C(=O)N3CCN(c4ncccc4OC4CC4)CC3)cc12` [Example I-593] yielded an IC50 of under 0.1 µM.
`COc1cc(F)ccc1-c1cc(C2=CCCN(C(=O)CCn3ccnn3)C2)c(F)c2[nH]c(C(=O)N3CCN(c4ncccc4OC4CC4)CC3)cc12` [Example I-594] was tested, and the IC50 was under 0.1 µM.
With `COc1ncccc1-c1cc(C2=CCCN(C(=O)CCn3ccnn3)C2)c(F)c2[nH]c(C(=O)N3CCN(c4ncccc4OC4CC4)CC3)cc12` [Example I-595] the IC50 was under 0.1 µM.
With `COc1cc(F)c(F)cc1-c1cc(C2=CCCN(C(=O)CCn3ccnn3)C2)c(F)c2[nH]c(C(=O)N3CCN(c4ncccc4OC4CC4)CC3)cc12` [Example I-596] the IC50 was under 0.1 µM.
With `COc1c(F)cc(F)cc1-c1cc(C2=CCCN(C(=O)CCn3ccnn3)C2)c(F)c2[nH]c(C(=O)N3CCN(c4ncccc4OC4CC4)CC3)cc12` [Example I-597] the IC50 was under 0.1 µM.
`COc1cc(F)ccc1-c1cc(C2=CCCN(C(=O)CCn3ccnn3)C2)c(F)c2[nH]c(C(=O)N3CCN(c4ccccc4OC)CC3)cc12` [Example I-598] was tested, and the IC50 was under 0.1 µM.
Work on `COc1ccccc1N1CCN(C(=O)c2cc3c(-c4cccnc4OC)cc(C4=CCCN(C(=O)CCn5ccnn5)C4)c(F)c3[nH]2)CC1` [Example I-599] yielded an IC50 of under 0.1 µM.
`COc1cc(F)c(F)cc1-c1cc(C2=CCCN(C(=O)CCn3ccnn3)C2)c(F)c2[nH]c(C(=O)N3CCN(c4ccccc4OC)CC3)cc12` [Example I-600] showed an IC50 of under 0.1 µM.
`COc1ccccc1N1CCN(C(=O)c2cc3c(-c4cc(F)cc(F)c4OC)cc(C4=CCCN(C(=O)CCn5ccnn5)C4)c(F)c3[nH]2)CC1` [Example I-601] showed an IC50 of under 0.1 µM.
For `COc1ncccc1-c1cc(C2=CCCN(C(=O)CCn3ccnn3)C2)c(F)c2[nH]c(C(=O)N3CCN(C4CC4)CC3)cc12` [Example I-602], the IC50 was under 0.1 µM.
`COc1c(F)cc(F)cc1-c1cc(C2=CCCN(C(=O)CCn3ccnn3)C2)c(F)c2[nH]c(C(=O)N3CCN(C4CC4)CC3)cc12` [Example I-603] showed an IC50 of under 0.1 µM.
`COc1cc(F)c(F)cc1-c1cc(C2=CCCN(C(=O)CCn3ccnn3)C2)c(F)c2[nH]c(C(=O)N3CCN(C4CC4)CC3)cc12` [Example I-604] showed an IC50 of under 0.1 µM.
`COc1cnccc1-c1cc(C2=CCCN(C(=O)CCn3ccnn3)C2)c(F)c2[nH]c(C(=O)N3CCN(C4CC4)CC3)cc12` [Example I-605] showed an IC50 of under 0.1 µM.
With `COc1cccc(N2CCN(C(=O)c3cc4c(-c5cccnc5OC)cc(C5=CCCN(C(=O)CCn6ccnn6)C5)c(F)c4[nH]3)CC2)n1` [Example I-606] the IC50 was under 0.1 µM.
`COc1cccnc1N1CCN(C(=O)c2cc3c(-c4cnccc4C(C)C)cc(C4=CCCN(C(=O)CCn5ccnn5)C4)c(F)c3[nH]2)CC1` [Example I-607] gave an IC50 of over 100 µM.
`CCc1cnccc1-c1cc(C2=CCCN(C(=O)CCn3ccnn3)C2)c(F)c2[nH]c(C(=O)N3CCN(c4ncccc4OC)CC3)cc12` [Example I-608] was tested, and the IC50 was over 100 µM.
In the case of `COc1cc(N(C)C)ccc1-c1cc(C2=CCCN(C(=O)CCn3ccnn3)C2)c(F)c2[nH]c(C(=O)N3CCN(c4ncccc4OC4CC4)CC3)cc12` [Example I-609], the IC50 is reported as under 0.1 µM.
Compound `COc1cc(N(C)C)ccc1-c1cc(C2=CCCN(C(=O)CCn3ccnn3)C2)c(F)c2[nH]c(C(=O)N3CCN(c4ccccc4OC)CC3)cc12` [Example I-610] has an IC50 of under 0.1 µM.
`COc1cccc(N2CCN(C(=O)c3cc4c(-c5ccncc5OC)cc(C5=CCCN(C(=O)CCn6ccnn6)C5)c(F)c4[nH]3)CC2)n1` [Example I-612] gave an IC50 of under 0.1 µM.
Compound `COc1cc(F)ccc1-c1cc(C2=CCCN(C(=O)CCn3ccnn3)C2)c(F)c2[nH]c(C(=O)N3CCN(c4ncc(F)cc4OC)CC3)cc12` [Example I-613] has an IC50 of under 0.1 µM.
Compound `COc1cc(F)cnc1-c1cc(C2=CCCN(C(=O)CCn3ccnn3)C2)c(F)c2[nH]c(C(=O)N3CCN(c4ncc(F)cc4OC)CC3)cc12` [Example I-614] has an IC50 of under 0.1 µM.
For `COc1cc(F)cnc1N1CCN(C(=O)c2cc3c(-c4cccc(O)c4)cc(C4=CCCN(C(=O)CCn5ccnn5)C4)c(F)c3[nH]2)CC1` [Example I-615], the IC50 was under 0.1 µM.
Work on `COc1cc(F)cnc1N1CCN(C(=O)c2cc3c(-c4cccc(CO)c4C)cc(C4=CCCN(C(=O)CCn5ccnn5)C4)c(F)c3[nH]2)CC1` [Example I-616] yielded an IC50 of over 100 µM.
In the case of `COc1cc(F)cnc1N1CCN(C(=O)c2cc3c(-c4ccnc(N5CCN(C)CC5)c4)cc(C4=CCCN(C(=O)CCn5ccnn5)C4)c(F)c3[nH]2)CC1` [Example I-617], the IC50 is reported as under 0.1 µM.
Compound `CCOc1ccc(-c2cc(C3=CCCN(C(=O)CCn4ccnn4)C3)c(F)c3[nH]c(C(=O)N4CCN(c5ncc(F)cc5OC)CC4)cc23)c(OCC)c1` [Example I-618] has an IC50 of under 0.1 µM.
In the case of `CCc1ccncc1-c1cc(C2=CCCN(C(C)=O)C2)c(F)c2[nH]c(C(=O)N3CCN(c4ncccc4OC)CC3)cc12` [Example I-619], the IC50 is reported as 0.1 to 1 µM.
`COc1cc(F)cnc1N1CCN(C(=O)c2cc3c(-c4cccc(-n5nc(C)cc5C)c4)cc(C4=CCCN(C(=O)CCn5ccnn5)C4)c(F)c3[nH]2)CC1` [Example I-620] was tested, and the IC50 was under 0.1 µM.
